{"source": "patent US11903920B2", "about": "“Cannabinoid formulation: production method and use” (CHIROSYN DISCOVERY TECHNOLOGIES INC., priority 2022, dated 2024)", "origin": "cited, not measured here", "conditions": "depending on the method and route of administration"}
{"smiles": "C=C(C)[C@@H]1CCC(C)=C[C@H]1c1c(O)cc(CCCCC)cc1O", "note": "[CBD, 2-[1R-3-methyl-6R-(1-methylethenyl)-2-cyclohexen-1-yl]-5-pentyl-1,3-benzenediol]", "values": [{"measurement": "Half-life", "result": "1.4 to 120", "unit": "h"}]}
